According to PubChem BioAssay AID248 (DTP/NCI, 2004):
Several values for one entry are separate records, joined by “and”; a condition that tells them apart may be missing. Identical values can stand only once. Toxic doses and inconclusive results are not listed. Rule as the data show it: active = T/C of 150% or more; inactive = T/C below 125%.

System: L1210 leukemia ip in BDF1 mice, survival T/C
Test: NCI In Vivo Anticancer Drug Screen. Data for tumor model L1210 Leukemia (intraperitoneal) in B6D2F1 (BDF1) mice
Conditions: endpoint: mean survival time, higher = longer survival
How it was run: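 Value reflects the ratio of survival in compound-treated mice to survival in vehicle-treated controls, with both groups carrying the same transplanted tumor.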

[1] = dose: 12.5 mg/kg/injection, schedule: Q01DX009 (ip), vehicle: saline
[2] = dose: 25.0 mg/kg/injection, schedule: Q01DX009 (ip), vehicle: saline
[3] = dose: 50.0 mg/kg/injection, schedule: Q01DX009 (ip), vehicle: saline
[4] = dose: 100.0 mg/kg/injection, schedule: Q01DX009 (ip), vehicle: saline
[5] = dose: 100.0 mg/kg/injection, schedule: Q04DX003 (ip), vehicle: saline
[6] = dose: 200.0 mg/kg/injection, schedule: Q04DX003 (ip), vehicle: saline
[7] = dose: 100.0 mg/kg/injection, schedule: Q04DX003 (ip), vehicle: saline with Tween-80
[8] = dose: 200.0 mg/kg/injection, schedule: Q04DX003 (ip), vehicle: saline with Tween-80
[9] = dose: 100.0 mg/kg/injection, schedule: Q04DX003 (ip), vehicle: Klucel (hydroxypropylcellulose) (HPC)
[10] = dose: 200.0 mg/kg/injection, schedule: Q04DX003 (ip), vehicle: Klucel (hydroxypropylcellulose) (HPC)
[11] = dose: 100.0 mg/kg/injection, schedule: Q01DX001 (ip), vehicle: saline
[12] = dose: 200.0 mg/kg/injection, schedule: Q01DX001 (ip), vehicle: saline
[13] = dose: 400.0 mg/kg/injection, schedule: Q01DX001 (ip), vehicle: saline
[14] = dose: 100.0 mg/kg/injection, schedule: Q01DX009 (ip), vehicle: saline with Tween-80
[15] = dose: 200.0 mg/kg/injection, schedule: Q01DX009 (ip), vehicle: saline with Tween-80
[16] = dose: 400.0 mg/kg/injection, schedule: Q01DX009 (ip), vehicle: saline with Tween-80
[17] = dose: 100.0 mg/kg/injection, schedule: Q01DX009 (ip), vehicle: Klucel (hydroxypropylcellulose) (HPC)
[18] = dose: 200.0 mg/kg/injection, schedule: Q01DX009 (ip), vehicle: Klucel (hydroxypropylcellulose) (HPC)
[19] = dose: 400.0 mg/kg/injection, schedule: Q01DX009 (ip), vehicle: Klucel (hydroxypropylcellulose) (HPC)
[20] = dose: 400.0 mg/kg/injection, schedule: Q04DX003 (ip), vehicle: Klucel (hydroxypropylcellulose) (HPC)
[21] = dose: 200.0 mg/kg/injection, schedule: Q01DX009 (ip), vehicle: saline
[22] = dose: 400.0 mg/kg/injection, schedule: Q04DX003 (ip), vehicle: saline with Tween-80
[23] = dose: 400.0 mg/kg/injection, schedule: Q04DX003 (ip), vehicle: saline

Measured: T/C

CCOC(=O)N(C1CCCCC1)P(=O)(OCC)OCC
inactive: [1] 96 % of control and 108 % of control | dose: 12.5 mg/kg/injection, schedule: Q04DX003 (ip), vehicle: saline 100 % of control | [2] 100 % of control and 91 % of control | dose: 25.0 mg/kg/injection, schedule: Q04DX003 (ip), vehicle: saline 107 % of control | [3] 97 % of control and 100 % of control | dose: 50.0 mg/kg/injection, schedule: Q04DX003 (ip), vehicle: saline 110 % of control | [4] 103 % of control and 91 % of control | [5] 103 % of control | [6] 100 % of control

COc1cc(NCc2ccccc2)ccc1NC(C)=O
inactive: dose: 15.0 mg/kg/injection, schedule: Q01DX001 (ip), vehicle: carboxymethylcellulose (CMC) 98 % of control | dose: 30.0 mg/kg/injection, schedule: Q01DX001 (ip), vehicle: carboxymethylcellulose (CMC) 110 % of control | dose: 75.0 mg/kg/injection, schedule: Q01DX001 (ip), vehicle: carboxymethylcellulose (CMC) 98 % of control

O=C1C=CC(=O)N1CO
inactive: dose: 2.5 mg/kg/injection, schedule: Q01DX009 (ip), vehicle: saline 91 % of control | dose: 2.5 mg/kg/injection, schedule: Q04DX003 (ip), vehicle: saline 96 % of control | dose: 5.0 mg/kg/injection, schedule: Q01DX009 (ip), vehicle: saline 94 % of control | dose: 5.0 mg/kg/injection, schedule: Q04DX003 (ip), vehicle: saline 98 % of control | dose: 10.0 mg/kg/injection, schedule: Q04DX003 (ip), vehicle: saline 91 % of control

CC(=O)C(Cl)C(O)(C(F)(F)F)C(F)(F)F (centres undefined)
inactive: [1] 96 % of control | [2] 100 % of control | [3] 110 % of control | [7] 95 % of control | [8] 104 % of control

Nc1nc(-c2ccccc2N=NN2CCN(N=Nc3ccccc3-c3nc(N)c4ccccc4n3)CC2)nc2ccccc12
inactive: [9] 101 % of control | [10] 96 % of control

Nc1ncnc2c1ncn2C1OC(CO)C(N)C1O (centres undefined)
inactive: dose: 1.3 mg/kg/injection, schedule: Q01DX Z (ip), vehicle: carboxymethylcellulose (CMC) 105 % of control | dose: 2.0 mg/kg/injection, schedule: Q01DX Z (ip), vehicle: carboxymethylcellulose (CMC) 108 % of control | dose: 3.0 mg/kg/injection, schedule: Q01DX Z (ip), vehicle: carboxymethylcellulose (CMC) 113 % of control

CCCCNC(=S)NCCCN(C)C
inactive: [9] 101 % of control | [10] 98 % of control

CCOC1=C(NC(C)=O)C(=O)c2ccccc2C1=O
inactive: dose: 75.0 mg/kg/injection, schedule: Q01DX001 (ip), vehicle: other 100 % of control

O=C(NCCCl)Nc1ccncc1
inactive: dose: 1.25 mg/kg/injection, schedule: Q01DX009 (ip), vehicle: Klucel (hydroxypropylcellulose) (HPC) 97 % of control | dose: 2.5 mg/kg/injection, schedule: Q01DX009 (ip), vehicle: Klucel (hydroxypropylcellulose) (HPC) 88 % of control | dose: 2.5 mg/kg/injection, schedule: Q04DX003 (ip), vehicle: Klucel (hydroxypropylcellulose) (HPC) 100 % of control | dose: 5.0 mg/kg/injection, schedule: Q04DX003 (ip), vehicle: Klucel (hydroxypropylcellulose) (HPC) 103 % of control

CCOC(=O)c1sc2ccc([N+](=O)[O-])cc2c1C
inactive: [11] 93 % of control | [12] 95 % of control | [13] 104 % of control

CCOC(=O)C(Br)(C(=O)OCC)C(c1ccccc1)c1ccccc1
inactive: [14] 98 % of control | [15] 96 % of control | [16] 93 % of control

C=C(C(=O)c1ccccc1)C(NC(C)(C)C)c1ccccc1 (centres undefined)
inactive: dose: 5.0 mg/kg/injection, schedule: Q01DX001 (ip), vehicle: saline 95 % of control | dose: 10.0 mg/kg/injection, schedule: Q01DX001 (ip), vehicle: saline 98 % of control | dose: 20.0 mg/kg/injection, schedule: Q01DX001 (ip), vehicle: saline 95 % of control

Cc1cc(C)c(NC(=O)Nc2ccccc2)c(C)c1
inactive: [17] 96 % of control | [9] 98 % of control | [18] 104 % of control | [10] 98 % of control | [19] 95 % of control | [20] 101 % of control

NC(=O)Cc1cc(=O)[nH]c(=O)[nH]1
inactive: [3] 107 % of control | dose: 50.0 mg/kg/injection, schedule: Q04DX003 (ip), vehicle: saline with Tween-80 96 % of control | [4] 102 % of control | [7] 97 % of control | [21] 100 % of control | [8] 94 % of control | dose: 400.0 mg/kg/injection, schedule: Q01DX009 (ip), vehicle: saline 97 % of control | [22] 91 % of control

CC(=O)c1cc2c(Br)cccc2oc1=O
inactive: [11] 91 % of control | [12] 98 % of control | [13] 95 % of control

CCOC(=O)Cc1cn(C)c2ccccc12
inactive: [7] 93 % of control | [8] 91 % of control | [22] 96 % of control

CCOC(=O)NCc1cnccn1
inactive: [5] 100 % of control and 102 % of control | [6] 95 % of control and 100 % of control | [23] 104 % of control

Cc1ccc2c(ccc(/C=C/c3ccc(O)c4ncccc34)[n+]2C)c1
inactive: dose: 22.0 mg/kg/injection, schedule: Q01DX009 (ip), vehicle: Klucel (hydroxypropylcellulose) (HPC) 115 % of control | dose: 33.0 mg/kg/injection, schedule: Q01DX009 (ip), vehicle: Klucel (hydroxypropylcellulose) (HPC) 117 % of control | dose: 100.0 mg/kg/injection, schedule: Q01DX001 (ip), vehicle: carboxymethylcellulose (CMC) 108 % of control | dose: 200.0 mg/kg/injection, schedule: Q01DX001 (ip), vehicle: carboxymethylcellulose (CMC) 124 % of control | [10] 98 % of control | dose: 400.0 mg/kg/injection, schedule: Q01DX001 (ip), vehicle: carboxymethylcellulose (CMC) 124 % of control

C#CC1(OC(C)=O)CCCCC1
inactive: [11] 102 % of control | [7] 105 % of control | [12] 95 % of control | [8] 98 % of control | [13] 100 % of control | [22] 93 % of control

O=C(NCC[N+](=O)[O-])c1ccccc1
inactive: [3] 97 % of control | [4] 93 % of control | [5] 92 % of control | [21] 95 % of control | [6] 96 % of control | [23] 100 % of control

NC(=O)c1cc(Cl)nc(Cl)n1
inactive: dose: 25.0 mg/kg/injection, schedule: Q01DX Z (ip), vehicle: methylcellulose (MC) 98 % of control | dose: 50.0 mg/kg/injection, schedule: Q01DX Z (ip), vehicle: methylcellulose (MC) 96 % of control

CCCCCCCCCCCCCC(=O)CC
inactive: dose: 90.0 mg/kg/injection, schedule: Q01DX009 (ip), vehicle: saline with Tween-80 98 % of control | [14] 92 % of control and 96 % of control | [7] 96 % of control | dose: 135.0 mg/kg/injection, schedule: Q01DX009 (ip), vehicle: saline with Tween-80 87 % of control | [15] 87 % of control and 88 % of control | [8] 96 % of control | dose: 300.0 mg/kg/injection, schedule: Q01DX009 (ip), vehicle: saline with Tween-80 92 % of control | [16] 97 % of control and 105 % of control | [22] 102 % of control

CC(C)(C(=O)O)c1ccccc1C(=O)c1ccccc1
inactive: [9] 97 % of control | [10] 101 % of control | [20] 105 % of control

c1ccc([Si](c2ccccc2)(c2cccs2)c2cccs2)cc1
inactive: [14] 103 % of control | [15] 95 % of control

COc1ccc(C2CCCCC2O)cc1 (centres undefined)
inactive: [17] 94 % of control | [9] 97 % of control | [18] 99 % of control | [10] 91 % of control | [19] 99 % of control | [20] 93 % of control

O=C(O)C(=O)c1ccccc1NC(=O)c1ccc(Cl)cc1
inactive: dose: 50.0 mg/kg/injection, schedule: Q04DX002 (ip), vehicle: Klucel (hydroxypropylcellulose) (HPC) 101 % of control | dose: 100.0 mg/kg/injection, schedule: Q04DX002 (ip), vehicle: Klucel (hydroxypropylcellulose) (HPC) 93 % of control | dose: 200.0 mg/kg/injection, schedule: Q04DX002 (ip), vehicle: Klucel (hydroxypropylcellulose) (HPC) 93 % of control

Cc1c(CBr)c(=O)[nH]c2ccccc12
inactive: [11] 100 % of control | [12] 98 % of control

COC1OC(COC(=O)c2ccccc2)C(OC(=O)c2ccccc2)C1OC(=O)c1ccccc1 (centres undefined)
inactive: [7] 101 % of control | [8] 92 % of control | [22] 90 % of control
